# Patent US20150183890A1, “Methods for Formation of Cyclodextrin-Ursolic Acid Inclusion Complex” (Campbell Industries, priority 2013, published 2015)
# Experiment: Aqueous solubility of cyclodextrin-ursolic acid inclusion complex versus ursolic acid alone
# Format: physicochemical
# Conditions: aqueous solutions; CDUA compared with UA alone
structure (smiles),measurement,value
"C[C@H]1[C@H](C)CC[C@]2(C(=O)O)CC[C@]3(C)C(=CC[C@@H]4[C@@]5(C)CC[C@H](O)C(C)(C)[C@@H]5CC[C@]43C)[C@H]12 [UA, 3-β-hydroxy-urs-12-en-28-oic acid]",aqueous solubility (in words),largely insoluble
